Measured values published in ChEMBL document CHEMBL6092166, “Design, synthesis and enzymatic inhibition evaluation of novel 4-hydroxy Pd-C-Ⅲ derivatives as α-glucosidase and PTP1B dual-target inhibitors” (Eur J Med Chem, 2024).

Legend:
[1] = target: T1, Alpha glucosidase (Homo sapiens, UniProt O43451+P10253+P14410+Q2M2H8); assay: Inhibition of alpha-glucosidase (unknown origin) using p-NPG as substrate preincubated for 15 mins followed by substrate addition for 30 mins by absorbance based analysis; format: protein assay
[2] = target: T1, Alpha glucosidase; assay: Inhibition of alpha-glucosidase (unknown origin) using p-NPG as substrate incubated for 15 mins by spectrophotometric analysis; format: protein assay
[3] = target: T2, Tyrosine-protein phosphatase non-receptor type 1 (Homo sapiens, UniProt P18031); assay: Inhibition of PTP1B (unknown origin) using pNPP as substrate preincubated for 10 mins followed by substrate addition for 20 mins by absorbance based analysis
T2 sequence (P18031 whole entry): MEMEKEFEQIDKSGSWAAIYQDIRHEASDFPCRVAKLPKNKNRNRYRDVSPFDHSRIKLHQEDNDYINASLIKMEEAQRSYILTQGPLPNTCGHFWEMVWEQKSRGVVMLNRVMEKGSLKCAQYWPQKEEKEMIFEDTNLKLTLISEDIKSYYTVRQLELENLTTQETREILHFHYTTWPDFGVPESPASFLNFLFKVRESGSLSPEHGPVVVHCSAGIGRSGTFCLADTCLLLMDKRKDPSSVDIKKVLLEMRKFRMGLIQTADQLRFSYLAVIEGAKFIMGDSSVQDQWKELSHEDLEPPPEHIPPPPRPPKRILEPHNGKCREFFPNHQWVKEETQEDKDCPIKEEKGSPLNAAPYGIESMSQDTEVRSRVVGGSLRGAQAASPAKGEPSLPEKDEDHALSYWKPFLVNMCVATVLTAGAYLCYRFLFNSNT

| SMILES | IC50 [1] [µM] | IC50 [2] [µM] | IC50 [3] [µM] |
| --- | --- | --- | --- |
| O=C(/C=C/c1ccc(F)cc1)OCCOc1ccc2ccc(=O)oc2c1 | > 300 | – | – |
| CC(C)c1cc2cc3ccc(=O)oc3cc2o1 | – | 85.8 | 10.8 |
| O=C(/C=C/c1ccccc1)OCCOc1ccc2ccc(=O)oc2c1 | 235.6 | – | – |
| CC1(C)Oc2cc3oc(=O)ccc3cc2C[C@@H]1O [DECURSINOL] | – | 65.3 | 58.9 |
| O=C(OCCCOc1ccc2ccc(=O)oc2c1)c1ccc(Cl)cc1Cl | > 300 | – | – |
| Cc1cc(=O)oc2c(C)c(OCCOC(=O)/C=C/c3ccc(Cl)cc3Cl)ccc12 | > 300 | – | – |
| O=C(/C=C/c1ccc2ccccc2c1)OCCOc1ccc2ccc(=O)oc2c1 | > 300 | – | – |
| CCCc1cc(=O)oc2cc(OCCOC(=O)/C=C/c3ccc(Cl)cc3Cl)ccc12 | > 300 | – | – |
| O=C(/C=C/c1ccc(Cl)cc1Cl)OCCCOc1ccc2ccc(=O)oc2c1 | > 300 | – | – |
| O=C(O)c1cc2ccc(=O)oc2cc1O | – | 172.1 | 8 |

Results, then the molecule that gave them:

| IC50 [1] [µM] | IC50 [2] [µM] | IC50 [3] [µM] | SMILES |
| --- | --- | --- | --- |
| > 300 | – | – | O=C(OCCCCOc1ccc2ccc(=O)oc2c1)c1ccc(Cl)cc1Cl |
| 132.7 | – | – | O=C(/C=C/c1cccc(Br)c1)OCCOc1ccc2ccc(=O)oc2c1 |
| 99 | – | – | O=C(OCCOc1ccc2ccc(=O)oc2c1)c1ccc(Cl)cc1Cl |
| – | 79.1 | 11.2 | CC(C)=CC(=O)O[C@@H]1c2cc3ccc(=O)oc3cc2OC(C)(C)[C@H]1OC(=O)C=C(C)C |
| > 300 | – | – | O=C(/C=C/c1cccc(Cl)c1)OCCOc1ccc2ccc(=O)oc2c1 |
| – | 77.3 | 5.4 | C/C=C\C(=O)O[C@H]1[C@H](O)c2cc3ccc(=O)oc3cc2OC1(C)C |
